Reference: patent US20260274887A1, “SALT FORM AND POLYCRYSTALLINE FORM OF ALLOPREGNANOLONE DERIVATIVE, PREPARATION METHOD THEREFOR, AND USE THEREOF” (priority 2023, published 2026)
Read-outs that look alike come from different tables or passages of the source.

What was measured:
[1] = Solubility of different salt forms in water (HPLC of supernatant); details: for solubility at 24 h: water, thermodynamic from solid; for Solubility at 37° C. / Solubility at 25° C.: purified water, 24 h
Protocol: The system was stirred in a water bath at 25° C. In addition, the same system was prepared by the same method and stirred at 37° C. After 24 h, the supernatant was taken for HPLC analysis.

[2] = assay type: physicochemical
[3] = Hygroscopic weight gain experiment (Chinese Pharmacopoeia 2020 hygroscopicity guideline); assay type: physicochemical; details: for Hygroscopic weight gain: 25° C.±1° C. and 80%±2% RH
Protocol: Table 1 below is the definition and range of hygroscopicity for a drug after equilibration at 25° C.±1° C. and 80%±2% RH in Guidelines for Hygroscopicity Trials for Pharmaceuticals (Chinese Pharmacopoeia, 2020 Edition, Volume IV, page 485).
The strong hygroscopicity of a drug will seriously affect the flowability of the drug and even affect the stability of the drug. Therefore, according to the present application, a hygroscopic weight gain experiment was conducted on different salt forms of compound 1 as per the method described in Guidelines for Hygroscopicity Trials for Pharmaceuticals (Chinese Pharmacopoeia, 2020 Edition, Volume IV).

[4] = Interconversion between crystalline forms (slurry of two forms, DSC); assay type: physicochemical; details: room temperature, 3 days
Protocol: Samples of two different crystalline forms were mixed and dissolved in a corresponding solvent of 5 mL, and the mixture was stirred at room temperature for 3 days and separated by centrifugation. The resulting solid was dried in vacuum at 40 ° C. The dried product was subjected to a DSC test to determine the composition of the crystalline form.

[5] = Stability of crystalline form I and II (HPLC purity; XRPD and DSC crystalline form); assay type: physicochemical
[6] = DVS profile (moisture sorption) of crystalline forms; assay type: physicochemical
[7] = Stability of crystalline form I and II (HPLC purity; XRPD and DSC crystalline form); assay type: physicochemical; remark: listed apart in the source
From the text: Samples were taken on day 0, day 10, and day 30 for XRPD and DSC detections to evaluate the physical stability and for HPLC purity detection to evaluate the chemical stability.

[8] = in the human body; cited from earlier work

## [2H]C(C)(C)[C@H](N)C(=O)O[C@@H]1CC[C@@]2(C)[C@@H](CC[C@@H]3[C@@H]2CC[C@]2(C)[C@@H](C(C)=O)CC[C@@H]32)C1 [Compound 1, L-valine-3-d, (3α,5α)-3-hydroxy-pregnan-20-one-3-yl ester]
[1]; 25 °C
  solubility at 24 h: 10 µg/mL
[1]
  Solubility at 37° C.: Not detected

## Cl.[2H]C(C)(C)[C@H](N)C(=O)O[C@@H]1CC[C@@]2(C)[C@@H](CC[C@@H]3[C@@H]2CC[C@]2(C)[C@@H](C(C)=O)CC[C@@H]32)C1 [Hydrochloride]
[1]; 25 °C
  solubility at 24 h: 22700 µg/mL
[1]; 37 °C
  solubility at 24 h: 46400 µg/mL
[2]; day 0
  HPLC purity, High humidity/RH 92.5%: 100%
  HPLC purity, High temperature/60° C.: 100%
  HPLC purity, Illumination/4500 ± 500 Lux: 100%
[2]; day 7
  HPLC purity, High humidity/RH 92.5%: 99.89%
  HPLC purity, High temperature/60° C.: 99.89%
  HPLC purity, Illumination/4500 ± 500 Lux: 99.89%
[2]; day 14
  HPLC purity, High humidity/RH 92.5%: 99.89%
  HPLC purity, High temperature/60° C.: 99.88%
  HPLC purity, Illumination/4500 ± 500 Lux: 99.89%
[3]
  Hygroscopic weight gain: 0.2%

## O=C(O)CC(O)C(=O)O.[2H]C(C)(C)C(N)C(=O)OC1CCC2(C)C(CCC3C2CCC2(C)C(C(C)=O)CCC32)C1.[2H]C(C)(C)C(N)C(=O)OC1CCC2(C)C(CCC3C2CCC2(C)C(C(C)=O)CCC32)C1 [L-Malate]
[1]
  Solubility at 25° C.: 1400 µg/mL
  Solubility at 37° C.: 2110 µg/mL
[3]
  Hygroscopic weight gain: 4.0%

## C1=Cc2cccc(OC[C@H]3CNCCO3)c2C1.O=S(=O)(O)c1ccccc1 [Benzenesulfonate]
[3]
  Hygroscopic weight gain: 0.2%

## Cl.[2H]C(C)(C)[C@H](N)C(=O)O[C@@H]1CC[C@@]2(C)[C@@H](CC[C@@H]3[C@@H]2CC[C@]2(C)[C@@H](C(C)=O)CC[C@@H]32)C1 [Crystalline form IV]
[4]; n-heptane 5 ml
  Final crystalline form: crystalline form IIL

## O=P(O)(O)O.[2H]C(C)(C)C(N)C(=O)OC1CCC2(C)C(CCC3C2CCC2(C)C(C(C)=O)CCC32)C1.[2H]C(C)(C)C(N)C(=O)OC1CCC2(C)C(CCC3C2CCC2(C)C(C(C)=O)CCC32)C1 (stereo not drawn) [Phosphate]
[3]
  Hygroscopic weight gain: 4.9%

## Maleate
[1]
  Solubility at 25° C.: 730 µg/mL
  Solubility at 37° C.: 1120 µg/mL
[3]
  Hygroscopic weight gain: 0%

## Cl.[2H]C(C)(C)[C@H](N)C(=O)O[C@@H]1CC[C@@]2(C)[C@@H](CC[C@@H]3[C@@H]2CC[C@]2(C)[C@@H](C(C)=O)CC[C@@H]32)C1 [Crystalline form I]
[5]; day 5
  Purity, High humidity (RH 92.5%): 99.72%
  Purity, High temperature (60° C.): 99.78%
  Purity, Illumination (4500 ± 500 Lux): 99.78%
[5]; day 10
  Purity, Illumination (4500 ± 500 Lux): 99.82%
[5]; day 30
  Purity, High humidity (RH 92.5%): 99.78%
  Purity, High temperature (60° C.): 99.64%
[6]; relative humidity 90%
  DVS weight gain: 1.2%
[3]; summary of the polymorph comparison
  Hygroscopicity (summary statement): non-hygroscopic
[7]; day 0
  Purity, High humidity (RH 92.5%): 99.77%
  Purity, High temperature (60° C.): 99.77%
  Purity, Illumination (4500 ± 500 Lux): 99.77%
[7]; day 10
  Purity, High humidity (RH 92.5%): 99.82%
  Purity, High temperature (60° C.): 99.77%
[7]; day 30
  Purity, Illumination (4500 ± 500 Lux): 99.65%

## CC(=O)[C@H]1CC[C@H]2[C@@H]3CC[C@H]4C[C@H](O)CC[C@]4(C)[C@H]3CC[C@]12C [allopregnanolone, 3α-OH-5α-pregnan-20-one]
[8]
  plasma half-life: about 45 minutes

## CC(=O)O [Acetate]
[3]
  Hygroscopic weight gain: 0.4%

## Cc1ccc(S(=O)(=O)O)cc1.[2H]C(C)(C)C(N)C(=O)OC1CCC2(C)C(CCC3C2CCC2(C)C(C(C)=O)CCC32)C1 (stereo not drawn)
[1]
  Solubility at 25° C.: 810 µg/mL
  Solubility at 37° C.: 890 µg/mL
[3]
  Hygroscopic weight gain: 0%

## Cl.[2H]C(C)(C)[C@H](N)C(=O)O[C@@H]1CC[C@@]2(C)[C@@H](CC[C@@H]3[C@@H]2CC[C@]2(C)[C@@H](C(C)=O)CC[C@@H]32)C1 [Crystalline form II]
[5]; day 5
  Purity, High humidity (RH 92.5%): 99.39%
  Purity, High temperature (60° C.): 99.28%
  Purity, Illumination (4500 ± 500 Lux): 99.57%
[5]; day 10
  Purity, Illumination (4500 ± 500 Lux): 99.68%
[5]; day 30
  Purity, High humidity (RH 92.5%): 99.37%
  Purity, High temperature (60° C.): 97.03%
[6]; relative humidity 50%
  DVS weight gain: about 4%
[4]; isopropyl acetate 5 ml
  Final crystalline form: crystalline form I
[7]; day 0
  Purity, High humidity (RH 92.5%): 99.59%
  Purity, High temperature (60° C.): 99.59%
  Purity, Illumination (4500 ± 500 Lux): 99.59%
[7]; day 10
  Purity, High humidity (RH 92.5%): 99.65%
  Purity, High temperature (60° C.): 98.93%
[7]; day 30
  Purity, Illumination (4500 ± 500 Lux): 99.20%

## Cl.[2H]C(C)(C)[C@H](N)C(=O)O[C@@H]1CC[C@@]2(C)[C@@H](CC[C@@H]3[C@@H]2CC[C@]2(C)[C@@H](C(C)=O)CC[C@@H]32)C1 [Crystalline form III]
[4]; isopropyl acetate 5 ml
  Final crystalline form: crystalline form I
